Test results: patent publication US12064459B2, “Compositions and methods for improving skin health and for the treatment and prevention of diseases, disorders and conditions associated with pathogenic microbes” (priority 2019, dated 2024)
In brackets after ≈: the same amount, converted by molar mass. Where two headings read alike, the source gives them in different places. Where a SMILES comes first, the peptide text is derived from it. Bridges are numbered along the chain shown (N, C = ends). [ ]: non-standard residue; d: D form. The star is where a group is joined. Ileψ(thiazoline)Cys = CC[C@H](C)[C@H](N)C1=N[C@H](C(=O)*)CS1; dOrn = NCCC[C@@H](N)C(=O)O

Tests used:
DB02378 = assay: Antibiotic MIC tests; assay type: cell-based, Janthinobacterium lividum; details: strain DB02378
Experimental: (§1) The antibiotic resistance profile and MICs tests were performed using Janthinobacterium lividum grown from cultures purified and grown in vegitone LB broth.

DB00118 = assay: Antibiotic MIC tests; assay type: cell-based, Janthinobacterium lividum; details: strain DB00118
Experimental: as §1

DB00121 = assay: Antibiotic MIC tests; assay type: cell-based, Janthinobacterium lividum; details: strain DB00121
Experimental: as §1

DB02473 = assay: Antibiotic MIC tests; assay type: cell-based, Janthinobacterium lividum; details: strain DB02473
Experimental: as §1

E. Coli ATCC25922 [1] = assay: Antibiotic MIC tests; assay type: cell-based; details: Escherichia coli
E. Coli ATCC25922 [2] = details: cited from earlier work
[3] = tested on: Janthinobacterium lividum strains; assay: Internal antibiotic resistance tests (BD BBL Sensi-Disc, zone of inhibition); assay type: cell-based; details: all 5 strains; disc content per antibiotic (e.g. penicillin 10 IU); FIG. 5
Experimental: One Janthinobacterium lividum colony of 3-day old grown in 50% BHI agar was mixed well in 1 ml of 1×PBS buffer, diluted 10× and 100×, respectively. 200 μl of diluted Janthinobacterium lividum cells were evenly plated onto R2A/BHI agar plates in triplicate in 150 mm petri dishes. Antibiotic discs (BD BBL Sensi-Disc antimicrobial susceptibility test discs) were dispensed using a Disc dispenser (BD BBL Sensi-Disc Designer Dispenser System, 12-Place). Plates were incubated for 2-3 days at room temperature and imaged at the end of incubation.
The sensitivity of Janthinobacterium lividum to antibiotics is reflected by a clear zone of inhibition of Janthinobacterium lividum cells surrounding the antibiotic discs. The zone of inhibition was measured using ImageJ and was transformed into cm for analysis.

[4] = tested on: Janthinobacterium lividum strains; assay: Antibiotic MIC tests, resistance profile in words; assay type: cell-based; details: Table 7 and 8
Experimental: as §1

[5] = Janthinobacterium lividum, read-out: MIC

Molecule | MIC (DB02378; [5]) [µg/mL] | MIC (DB00118; [5]) [µg/mL] | MIC (DB00121; [5]) [µg/mL] | MIC (DB02473; [5]) [µg/mL] | MIC (E. Coli ATCC25922 [1]) [µg/mL] | sensitivity of Janthinobacterium lividum to antibiotic discs [3] | sensitivity of Janthinobacterium lividum strains to antibiotics [4] | further results
NCC[C@H](O)C(=O)N[C@@H]1C[C@H](N)[C@@H](O[C@H]2O[C@H](CN)[C@@H](O)[C@H](O)[C@H]2O)[C@H](O)[C@H]1O[C@H]1O[C@H](CO)[C@@H](O)[C@H](N)[C@H]1O [Amikacin] | 2 (≈ 3.42 µM) | 2 (≈ 3.42 µM) | 1 (≈ 1.71 µM) | 2 (≈ 3.42 µM) | 2 (≈ 3.42 µM) |  |  | MIC, CLSI QC ranges (E. Coli ATCC25922 [2]): 0.5 to 4 µg/mL
CN[C@H](CC(C)C)C(=O)N[C@H]1C(=O)N[C@@H](CC(N)=O)C(=O)N[C@H]2C(=O)N[C@H]3C(=O)N[C@H](C(=O)N[C@H](C(=O)O)c4cc(O)cc(O)c4-c4cc3ccc4O)[C@H](O)c3ccc(c(Cl)c3)Oc3cc2cc(c3O[C@@H]2O[C@H](CO)[C@@H](O)[C@H](O)[C@H]2O[C@H]2C[C@](C)(N)[C@H](O)[C@H](C)O2)Oc2ccc(cc2Cl)[C@H]1O [vancomycin] |  |  |  |  |  | sensitive |  | 
C[C@@H](O)[C@H]1C(=O)N2C(C(=O)O)=C(S[C@@H]3CN[C@H](C(=O)N(C)C)C3)[C@H](C)[C@H]12 [Meropenem] | 2 (≈ 5.22 µM) | 2 (≈ 5.22 µM) | 8 (≈ 20.9 µM) | 2 (≈ 5.22 µM) | < 0.063 |  | less sensitive | 
C[C@H]1[C@H](NC(=O)/C(=N\OC(C)(C)C(=O)O)c2csc(N)n2)C(=O)N1S(=O)(=O)O [Aztreonam] | 16 (≈ 36.7 µM) | 32 (≈ 73.5 µM) | 16 (≈ 36.7 µM) | 16 (≈ 36.7 µM) | 0.25 (≈ 0.574 µM) |  | less sensitive | 
Amoxicillin clavulanate |  |  |  |  |  |  | less sensitive | MIC (DB02378): 1 µg/mL; MIC (DB00118): 1 µg/mL; MIC (DB00121): 0.5 µg/mL; MIC (DB02473): 1 µg/mL
[H]/N=C(/N)N[C@H]1[C@H](O)[C@@H](O)[C@H](O[C@@H]2O[C@@H](C)[C@](O)(C=O)[C@H]2O[C@@H]2O[C@@H](CO)[C@H](O)[C@@H](O)[C@@H]2NC)[C@@H](N/C(N)=N\[H])[C@@H]1O [streptomycin] |  |  |  |  |  | sensitive |  | 
CC1(C)S[C@@H]2[C@H](NC(=O)[C@H](N)c3ccccc3)C(=O)N2[C@H]1C(=O)O [ampicillin] |  |  |  |  |  | sensitive |  | 
O=C(O)c1cn(C2CC2)c2cc(N3CCNCC3)c(F)cc2c1=O [Ciprofloxacin] | 0.5 (≈ 1.51 µM) | 0.5 (≈ 1.51 µM) | 0.25 (≈ 0.754 µM) | 0.5 (≈ 1.51 µM) |  | sensitive |  | 
O=C(N[C@H](CO)[C@H](O)c1ccc([N+](=O)[O-])cc1)C(Cl)Cl [Chloramphenicol] | 2 (≈ 6.19 µM) | 2 (≈ 6.19 µM) | 2 (≈ 6.19 µM) | 2 (≈ 6.19 µM) | 4 (≈ 12.4 µM) | sensitive | less sensitive | MIC, CLSI QC ranges (E. Coli ATCC25922 [2]): 2 to 8 µg/mL
CC[C@H]1OC(=O)[C@H](C)[C@@H](O[C@H]2C[C@@](C)(OC)[C@@H](O)[C@H](C)O2)[C@H](C)[C@@H](O[C@@H]2O[C@H](C)C[C@H](N(C)C)[C@H]2O)[C@](C)(O)C[C@@H](C)C(=O)[C@H](C)[C@@H](O)[C@]1(C)O [Erythromycin] | 8 (≈ 10.9 µM) | 15 (≈ 20.4 µM) | 8 (≈ 10.9 µM) | 15 (≈ 20.4 µM) | 64 (≈ 87.2 µM) | sensitive |  | 
CC(=O)OCC1=C(C(=O)O)N2C(=O)[C@@H](NC(=O)Cc3cccs3)[C@H]2SC1 [cephalothin] |  |  |  |  |  | sensitive |  | 
penicillin |  |  |  |  |  | sensitive |  | 
CC[C@H](C)[C@H](N)C1=N[C@H](C(=O)N[C@@H](CC(C)C)C(=O)N[C@H](CCC(=O)O)C(=O)N[C@H](C(=O)N[C@H]2CCCCNC(=O)[C@H](CC(N)=O)NC(=O)[C@@H](CC(=O)O)NC(=O)[C@H](Cc3cnc[nH]3)NC(=O)[C@@H](Cc3ccccc3)NC(=O)[C@H]([C@@H](C)CC)NC(=O)[C@@H](CCCN)NC2=O)[C@@H](C)CC)CS1 [Bacitracin] ({Ileψ(thiazoline)Cys}-L[dE]IK[dOrn]I[dF]H[dD]N; lactam 4-C) | > 64 | > 64 | > 64 | > 64 | > 64 |  | resistant | 
